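Five compound concentrations were applied to cells in 96-well plates for 48 hours; endpoints were derived by simple linear interpolation of the resulting dose-response curve. The concentration for 50% growth inhibition is given as GI50.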 Calls of active or inactive are those of the source. Cut-off read from the data, not from the text of the source: active = GI50 up to about 1.1 µM and inactive = higher.
Key:
Experiment in all cases: NCI anticancer screen, dose series, 48 h
[1] = system: A498
[2] = system: A549
[3] = system: ACHN
[4] = system: CAKI-1
[5] = system: CCRF-CEM
[6] = system: EKVX
[7] = system: HL-60
[8] = system: HOP-62
[9] = system: M14
[10] = system: Malme-3M
[11] = system: NCI-H226
[12] = system: NCI-H23
[13] = system: OVCAR-4
[14] = system: PC-3
[15] = system: SF-539
[16] = system: SK-MEL-5
[17] = system: SN12C
[18] = system: TK-10
[19] = system: U-251
[20] = system: UO-31

Measured: GI50

O=c1c2cc([N+](=O)[O-])ccc2[nH]n1Cc1ccccc1Cl
inactive: [1] 33.3 µM | [2] 42.1 µM | [3] 46.1 µM | [4] > 100 µM | [5] 85.5 µM | [6] 30.2 µM | [7] 30.8 µM | [8] 38.1 µM | [9] 86.1 µM | [10] 26.7 µM | [11] 74.1 µM | [12] 59.6 µM | [13] > 100 µM | [14] 93.8 µM | [15] 98.4 µM | [16] 34.7 µM | [17] 86.1 µM | [18] 18.2 µM | [19] 75.5 µM | [20] 39 µM

CCC(CS(=O)(=O)O)[N+](=O)[O-] (centres undefined)
inactive: [1] > 100 µM | [2] > 100 µM | [3] > 100 µM | [4] > 100 µM | [5] > 100 µM | [6] > 100 µM | [7] > 100 µM | [8] > 100 µM | [9] > 100 µM | [10] > 100 µM | [11] > 100 µM | [12] > 100 µM | [13] > 100 µM | [14] > 100 µM | [15] > 100 µM | [16] > 100 µM | [17] > 100 µM | [18] > 100 µM | [19] > 100 µM | [20] > 100 µM

O=C1/C(=C\c2ccc([N+](=O)[O-])o2)SC2NC(COc3ccc(Cl)cc3)=NN12 (centres undefined)
inactive: [1] 23.7 µM | [2] 18.3 µM | [3] 1.96 µM | [4] 13.1 µM | [5] 1.99 µM | [6] 5.83 µM | [7] 2.16 µM | [8] 22.5 µM | [9] 2.31 µM | [10] 2.4 µM | [11] 18.6 µM | [12] 10 µM | [13] 1.87 µM | [14] 9.73 µM | [15] 4.1 µM | [16] 12.8 µM | [17] 14 µM | [18] 17.6 µM | [19] 19.3 µM | [20] 4.62 µM

N#Cc1cc2c(cc1C#N)SCCSCCCSCCS2
inactive: [1] 40.8 µM | [2] > 83.9 µM | [3] 6.93 µM | [4] 22.8 µM | [5] > 48.3 µM | [6] > 48.9 µM | [7] > 10 µM | [8] 1.71 µM | [9] 38.3 µM | [10] 20.1 µM | [11] 41.1 µM | [12] 16.1 µM | [13] 8.93 µM | [14] 21.9 µM | [15] 10.4 µM | [16] > 100 µM | [17] 41.9 µM | [18] 2.82 µM | [19] 5.32 µM | [20] > 53.3 µM

CC(CCc1ccccc1)NCC(O)n1c(/N=N/N(C)C)nc2c1c(=O)n(C)c(=O)n2C (centres undefined)
inactive: [1] > 100 µM | [2] > 100 µM | [3] > 100 µM | [4] 88.7 µM | [5] > 100 µM | [6] > 100 µM | [7] 66.7 µM | [8] > 100 µM | [9] > 100 µM | [10] > 100 µM | [11] > 100 µM | [12] > 100 µM | [13] > 100 µM | [14] > 100 µM | [15] > 100 µM | [16] 78.7 µM | [18] > 100 µM | [19] > 100 µM | [20] > 100 µM

Reference: ChEMBL document CHEMBL1201862, “PubChem BioAssay data set” (2004)
